Calls of active or inactive are those of the source. The rule behind the calls is not given here.
Legend:
[1] = biological target: T1, Bifunctional dihydrofolate reductase-thymidylate synthase (Cryptosporidium parvum) (UniProt Q27552); assay: Ratio of trimethorpin IC50 to compound IC50 for Cryptosporidium parvum recombinant DHFR
T1 sequence (whole entry): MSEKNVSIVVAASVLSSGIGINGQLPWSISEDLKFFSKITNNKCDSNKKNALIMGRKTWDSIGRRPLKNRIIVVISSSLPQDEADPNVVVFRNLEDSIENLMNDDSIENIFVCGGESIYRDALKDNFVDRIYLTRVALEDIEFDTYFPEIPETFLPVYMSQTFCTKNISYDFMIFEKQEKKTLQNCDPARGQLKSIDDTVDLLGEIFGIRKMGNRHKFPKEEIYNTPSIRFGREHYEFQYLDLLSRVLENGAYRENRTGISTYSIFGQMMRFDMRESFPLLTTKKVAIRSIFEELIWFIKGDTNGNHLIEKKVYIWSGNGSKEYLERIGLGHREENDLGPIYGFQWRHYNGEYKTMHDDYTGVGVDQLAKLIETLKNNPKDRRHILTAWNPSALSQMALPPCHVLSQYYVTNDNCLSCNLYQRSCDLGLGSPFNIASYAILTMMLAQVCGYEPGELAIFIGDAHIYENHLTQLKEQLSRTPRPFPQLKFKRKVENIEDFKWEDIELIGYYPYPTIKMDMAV

Toxoplasma gondii [2] = assay: Antiparasitic activity against Toxoplasma gondii RH infected Swiss albino mouse assessed as decrease in tachozyte count in liver at 0.25 mg, po administered 48 hr post-infection measured after 3 days by Geimsa staining relative to control; format: functional, organism-based
[3] = biological target: T2, Bifunctional dihydrofolate reductase-thymidylate synthase (Cryptosporidium parvum, UniProt Q27552); assay: Inhibition of Cryptosporidium parvum recombinant DHFR using dihydrofolate as substrate incubated for 5 min prior to substrate addition by spectrophotometric assay
T2 sequence (Q27552 whole entry): T1 sequence (whole entry)

Toxoplasma gondii [4] = assay: Antiparasitic activity Toxoplasma gondii RH infected Swiss albino mouse assessed as increase in host spleen red pulp at 0.25 mg, po administered 48 hr post-infection measured after 3 days by haematoxylin and eosin staining relative to control; format: functional, organism-based
Toxoplasma gondii [5] = assay: Antiparasitic activity Toxoplasma gondii RH infected Swiss albino mouse assessed as megakaryocytes in host spleen at 0.25 mg, po administered 48 hr post-infection measured after 3 days by haematoxylin and eosin staining relative to control; format: functional, organism-based
Toxoplasma gondii [6] = assay: Antiparasitic activity Toxoplasma gondii RH infected Swiss albino mouse assessed as loss of parasite crescent shape in host peritoneal exudate at 0.25 mg, po administered 48 hr post-infection measured after 3 days by scanning electron microscopic analysis; format: functional, organism-based
Toxoplasma gondii [7] = assay: Antiparasitic activity Toxoplasma gondii RH infected Swiss albino mouse assessed as decrease in host liver necrosis at 0.25 mg, po administered 48 hr post-infection measured after 3 days by haematoxylin and eosin staining relative to control; format: functional, organism-based
Toxoplasma gondii [8] = assay: Antiparasitic activity Toxoplasma gondii RH infected Swiss albino mouse assessed as decrease in interstitial pneumonia at 0.25 mg, po administered 48 hr post-infection measured after 3 days by haematoxylin and eosin staining relative to control; format: functional, organism-based
Toxoplasma gondii [9] = assay: Antiparasitic activity Toxoplasma gondii RH infected Swiss albino mouse assessed as decrease in host spleen necrosis at 0.25 mg, po administered 48 hr post-infection measured after 3 days by haematoxylin and eosin staining relative to control; format: functional, organism-based
Toxoplasma gondii [10] = assay: Antiparasitic activity Toxoplasma gondii RH infected Swiss albino mouse assessed as decreased parasite movement in host peritoneal exudate at 0.25 mg, po administered 48 hr post-infection measured after 3 days by light microscopic analysis; format: functional, organism-based
Toxoplasma gondii [11] = assay: Antiparasitic activity Toxoplasma gondii RH infected Swiss albino mouse assessed as clear lymphocytes in host liver focal granuloma at 0.25 mg, po administered 48 hr post-infection measured after 3 days by haematoxylin and eosin staining relative to control; format: functional, organism-based
Toxoplasma gondii [12] = assay: Antiparasitic activity Toxoplasma gondii RH infected Swiss albino mouse assessed as disorganised parasite conoid in host peritoneal exudate at 0.25 mg, po administered 48 hr post-infection measured after 3 days by scanning electron microscopic analysis; format: functional, organism-based
Toxoplasma gondii [13] = assay: Antiparasitic activity Toxoplasma gondii RH infected Swiss albino mouse assessed as decrease in Toxoplasma antigen in host serum at 0.25 mg, po administered 48 hr post-infection measured after 3 days by Co-A test relative to control; format: functional, organism-based
Toxoplasma gondii [14] = assay: Antiparasitic activity against Toxoplasma gondii RH infected Swiss albino mouse assessed as decrease in tachozyte count in spleen at 0.25 mg, po administered 48 hr post-infection measured after 3 days by Geimsa staining relative to control; format: functional, organism-based
Toxoplasma gondii [15] = assay: Antiparasitic activity Toxoplasma gondii RH infected Swiss albino mouse assessed as clear mononuclear cells in host liver focal granuloma at 0.25 mg, po administered 48 hr post-infection measured after 3 days by haematoxylin and eosin staining relative to control; format: functional, organism-based
Toxoplasma gondii [16] = assay: Antiparasitic activity Toxoplasma gondii RH infected Swiss albino mouse assessed as parasite dimpled conoid in host peritoneal exudate at 0.25 mg, po administered 48 hr post-infection measured after 3 days by scanning electron microscopic analysis; format: functional, organism-based
Toxoplasma gondii [17] = assay: Antiparasitic activity Toxoplasma gondii RH infected Swiss albino mouse assessed as decrease in host lung congestion at 0.25 mg, po administered 48 hr post-infection measured after 3 days by haematoxylin and eosin staining relative to control; format: functional, organism-based
Toxoplasma gondii [18] = assay: Antiparasitic activity Toxoplasma gondii RH infected Swiss albino mouse assessed as parasite deformity in host peritoneal exudate at 0.25 mg, po administered 48 hr post-infection measured after 3 days by light microscopic analysis; format: functional, organism-based
Toxoplasma gondii [19] = assay: Antiparasitic activity Toxoplasma gondii RH infected Swiss albino mouse assessed as decrease in host spleen white pulp at 0.25 mg, po administered 48 hr post-infection measured after 3 days by haematoxylin and eosin staining relative to control; format: functional, organism-based
Toxoplasma gondii [20] = assay: Antiparasitic activity Toxoplasma gondii RH infected Swiss albino mouse assessed as extramedullary hematopoiesis in host spleen at 0.25 mg, po administered 48 hr post-infection measured after 3 days by haematoxylin and eosin staining relative to control; format: functional, organism-based
Dihydrofolate reductase = biological target: T3, Dihydrofolate reductase (Homo sapiens, UniProt P00374); assay: Inhibition of Homo sapiens (human) dihydrofolate reductase using dihydrofolate as substrate incubated for 5 min prior to substrate addition by spectrophotometric assay
T3 sequence (P00374 whole entry): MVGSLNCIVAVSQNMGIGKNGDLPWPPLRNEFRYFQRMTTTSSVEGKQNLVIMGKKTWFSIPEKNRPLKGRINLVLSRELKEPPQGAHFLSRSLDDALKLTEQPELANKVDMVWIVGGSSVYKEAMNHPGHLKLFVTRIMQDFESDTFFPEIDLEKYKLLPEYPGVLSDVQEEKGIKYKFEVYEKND

Toxoplasma gondii [21] = assay: Antiparasitic activity Toxoplasma gondii RH infected Swiss albino mouse assessed as epethelioid granuloma in host spleen at 0.25 mg, po administered 48 hr post-infection measured after 3 days by haematoxylin and eosin staining relative to control; format: functional, organism-based
Toxoplasma gondii [22] = assay: Antiparasitic activity Toxoplasma gondii RH infected Swiss albino mouse assessed as homogenous tachyzoites in host peritoneal exudate at 0.25 mg, po administered 48 hr post-infection measured after 3 days by scanning electron microscopic analysis; format: functional, organism-based
Toxoplasma gondii [23] = assay: Antiparasitic activity Toxoplasma gondii RH infected Swiss albino mouse assessed as smooth tachyzoites in host peritoneal exudate at 0.25 mg, po administered 48 hr post-infection measured after 3 days by scanning electron microscopic analysis; format: functional, organism-based
Toxoplasma gondii [24] = assay: Antiparasitic activity Toxoplasma gondii RH infected Swiss albino mouse assessed as deep ridged parasite surface in host peritoneal exudate at 0.25 mg, po administered 48 hr post-infection measured after 3 days by scanning electron microscopic analysis; format: functional, organism-based
Toxoplasma gondii [25] = assay: Antiparasitic activity Toxoplasma gondii RH infected Swiss albino mouse assessed as dimpled parasite surface in host peritoneal exudate at 0.25 mg, po administered 48 hr post-infection measured after 3 days by scanning electron microscopic analysis; format: functional, organism-based

| Structure (SMILES) | Ratio IC50 [1] | Activity (Toxoplasma gondii [2]) | IC50 [3] [nM] | Activity (Toxoplasma gondii [4]) | Activity (Toxoplasma gondii [5]) | Activity (Toxoplasma gondii [7]) | Activity (Toxoplasma gondii [8]) | Activity (Toxoplasma gondii [9]) | Activity (Toxoplasma gondii [10]) | Activity (Toxoplasma gondii [11]) | Activity (Toxoplasma gondii [13]) | Activity (Toxoplasma gondii [14]) | Activity (Toxoplasma gondii [15]) | Activity (Toxoplasma gondii [17]) | Activity (Toxoplasma gondii [18]) | Activity (Toxoplasma gondii [19]) | Activity (Toxoplasma gondii [20]) | IC50 (Dihydrofolate reductase) [nM] | Activity (Toxoplasma gondii [21]) | other results |
| --- | --- | --- | --- | --- | --- | --- | --- | --- | --- | --- | --- | --- | --- | --- | --- | --- | --- | --- | --- | --- |
| CCOC(=O)C1=C(C)N=C(SCCC(=O)O)NC1c1ccccc1OC (stereo not given) | 40 | Active | 75 | Active | inactive | Active | Active | Active | Active | Active | Active | Active | Active | inactive | Active | Active | inactive | 8.9 | inactive | Activity (Toxoplasma gondii [6]): Active; Activity (Toxoplasma gondii [12]): Active; Activity (Toxoplasma gondii [16]): Active |
| CC(=O)C1=C(C)N=C(SCCC(=O)O)NC1c1cccc(O)c1 (stereo not given) | 40 | Active | 65 | Active | inactive | Active | Active | Active | Active | Active | Active | Active | Active | inactive | Active | Active | inactive | 94 | inactive | Activity (Toxoplasma gondii [22]): Active; Activity (Toxoplasma gondii [23]): Active; Activity (Toxoplasma gondii [24]): Active; Activity (Toxoplasma gondii [25]): Active |

— ChEMBL document CHEMBL3045961, “Synthesis and evaluation of some pyrimidine analogs against toxoplasmosis” (Med Chem Res, 2008)
